Measurements as given in patent US9605078B2, “Pictet-Spengler ligation for protein chemical modification” (THE REGENTS OF THE UNIVERSITY OF CALIFORNIA, priority 2012, dated 2017).

Assay: Small molecule hydrolysis of model oxime and oxacarboline, followed by liquid chromatography
Format: physicochemical
Conditions: 1 μM, buffered solutions at pH 4.5 or 5.0, room temperature, over two days
Procedure: Small molecule hydrolysis: Hydrolysis solutions contained 1 μM 5a or 5b, 25 μM phenylalanine as an internal standard, and 5 mM sodium acetate at the appropriate pH. The solutions were incubated at room temperature and 50 μL aliquots were repeatedly analyzed by liquid chromatography on an Agilent 1200 instrument using an Agilent Poroshell 120 EC-C18 reverse phase column (4.6×50 mm) with a solvent flow rate of 0.4 mL/min. The following gradient was employed (time (min), % MeCN in H2O with 0.1% TFA): 0, 5; 10, 95; 12, 95; 14, 5; 19, 5. The time of the first injection for each solution was assigned as t=0. Integrals of the absorption peaks for 5a and 5b at 440 nm were normalized against the phenylalanine peak for each injection.

SMILES	hydrolysis of conjugate (liquid chromatography)	conjugate remained intact (liquid chromatography)
O=C(NCCC=NOCc1ccccc1)c1ccc(-c2c3ccc(=O)cc-3oc3cc(O)ccc23)c(C(=O)O)c1 (racemic) [Compound 5a, 5-((3-((Benzyloxy)imino)propyl)carbamoyl)-2-(6-hydroxy-3-oxo-3H-xanthen-9-yl)benzoic acid]	majority of oxime 5a hydrolyzed	
CN1OCc2c(c3ccccc3n2CCC(=O)O)C1CCNC(=O)c1ccc(-c2c3ccc(=O)cc-3oc3cc(O)ccc23)c(C(=O)O)c1 (centres unmarked) [Compound 5b, 5-((2-(5-(2-Carboxyethyl)-2-methyl-1,2,4,5-tetrahydro-[1,2]oxazino [5,4-b]indol-1-yl)ethyl)carbamoyl)-2-(6-hydroxy-3-oxo-3H-xanthen-9-yl)benzoic acid]		over 90%
